Drawing on the CATMoS acute toxicity set (Mansouri et al. 2021), this text covers GHS category for 73 compounds.

Molecules are shown by their SMILES.

The nature of the series: GHS categories as the set defines them, by LD50: 1 up to 5, 2 up to 50, 3 up to 300, 4 up to 2000, 5 above 2000 mg/kg. As to conditions: rat; in vivo; po. The source says:
[…]The data set underlying the modeling effort for this project was initially compiled by NICEATM and U.S. EPA’s CCTE. Briefly, LD50 data were collected from rat acute oral systemic toxicity tests, including limit tests, ranges/confidence intervals, and discrete LD50 values. The full data set included 21,200 LD50 entries for 15,688 substances. […] Data were reviewed to ensure that LD50 values with obvious errors in the extracted data such as unit conversion errors (e.g., comma and decimal separator misplacements) were either fixed or removed. After this review, 16,209 LD50 values remained. Many of the chemicals represented had multiple LD50 entries, requiring that a single representative value per Chemical Abstracts Service Registry Number (CASRN) identifier be defined to facilitate modeling efforts. Based on ATWG feedback and to define the representative LD50 as a protective value while accounting for the distribution across multiple LD50s, the median of the lowest quartile was computed using only discrete LD50 values (omitting limit test data and range and confidence interval data). A detailed summary of the data compilation is available online on the NICEATM webpage dedicated to the collaborative modeling project (NTP 2020).
[…][…] For categorical designations, limit test and range/confidence interval LD50 data were integrated wherever possible. As such, the number of chemicals with end point values/calls varies across the modeling end points (Table 3) based on whether chemicals had representative LD50 values and/or other data. If a chemical had both, the representative value was used to determine categorical calls rather than limit test data. Some data were useable only for certain end points and categories depending on the thresholds. For example, ranges that spanned multiple hazard categories were considered only for the binary (very toxic/nontoxic) end points and omitted from rendering a determination for hazard category assignment.
[…]The final data set comprising 11,992 chemicals was split into training and evaluation sets […], respectively. This process was performed semirandomly by ordering chemicals based on the five end points (categorical and continuous LD50 values) and partitioning every fourth record into the evaluation set accordingly. This approach was taken to ensure an equivalent distribution of the LD50 values and the different hazard categories between the training and the evaluation sets without supervised sampling of the chemicals based on structures (Figure 1A). The sources of the chemical structures were also kept equivalent between the two sets, with chemical structures obtained from DSSTox, being the highest quality, representing over 75% of each set (Figure 1B).
`COc1ccc2c(c1)CCN(c1ccccc1)C2c1cccc(C(F)(F)F)c1` (stereo not drawn) showed a GHS category of 4.

`O=C(O)C(=O)Nc1cccc(-c2nnn[nH]2)c1` returned a GHS category of 5.

The compound `N#Cc1c[nH]cc1-c1cccc(Cl)c1Cl` displayed a GHS category of 5.

Turning to `O=C(NNCc1ccccc1)C(O)C(O)C(O)CO` (stereo not drawn), the GHS category is listed as 5. Turning to `NS(=O)(=O)c1cc(C2(O)NC(=O)c3ccccc32)ccc1Cl` (stereo not drawn), the GHS category came out at 5. For `Cc1nc2cc(Cl)ccc2o1`, the GHS category is given as 4.

With `NC(=O)c1ccc(NC(=O)c2ccc(N)cc2)cc1`, the GHS category was found to be 5.

Consider `COC(=O)N(OC)c1ccccc1COc1ccn(-c2ccc(Cl)cc2)n1`, for which the GHS category stood at 5.

`CCOC[C@H]1CO[C@@](Cn2cncn2)(c2cc3cc(Cl)cc(Cl)c3o2)O1`: the GHS category is 4. Regarding `CCCCCCCCCCCCCCOc1ccc(C(=O)O)o1`, the GHS category came out at 5. As for `CCCCC1COCC(C)C1OC(C)=O` (stereo not drawn), the figure is 5; as for `CCCCC(CC)COC(=O)c1ccc([N+](=O)[O-])cc1` (stereo not drawn), 5; as for `CC(C)CCCCCCCCCCCCCCCO`, 5. With `COc1ccc2c(c1)CCN(c1ccccc1)C2c1ccccc1Br` (stereo not drawn), the GHS category stood at 4. Then `C[N+]1(CC(O)COc2cccc3c2CCC(=O)N3)CCC(c2ccccc2)CC1` (stereo not drawn), with 4. With `CCCN(CCC)C(=O)C(CCC(=O)OCCOC(=O)COC(=O)Cc1c(C)n(C(=O)c2ccc(Cl)cc2)c2ccc(OC)cc12)NC(=O)c1ccccc1` (stereo not drawn), the GHS category was 4.

Compound `Cc1cc(C2(c3ccc(O)cc3)NC(=O)NC2=O)ccc1O` (stereo not drawn) gave a GHS category of 5. Compound `O=C(O)CN(CCCN(C(=O)O)C(=O)O)C(=O)O` returned a GHS category of 5.

Compound `CCOC(=O)c1ocnc1C` displayed a GHS category of 5. Compound `CCN(CC)C(=O)CCSCc1nnnn1C` displayed a GHS category of 4. Then `O=C1CCCCCCCCCCOCCCCO1`, with 5. Then `Cc1ccc(C(C)C)c(OC(=O)c2ccccc2Nc2cccc(C)c2C)c1`, with 5; and `CCC=CCC=CCC=CCC=CCC=CCCCCCC(=O)O`, with 5.

Regarding `Cn1c(N)cc(=O)n(C)c1=O`, the GHS category was found to be 5.

The compound `Clc1ccc2oc(C3(Cn4ccnc4)OCCO3)cc2c1` returned a GHS category of 4. Then `Cc1onc(-c2ccccc2)c1C(=O)N[C@@H]1C(=O)N2[C@@H]1SC(C)(C)[C@@H]2C(=O)O`, with 5; and `O=C=Nc1ccc(Br)cc1`, with 5.

For the compound `CCC1(CO)COC1`, the GHS category is recorded as 5. Then `CCCCCCCC(=O)OCCC`, with 5; and `COP(=S)(OC)N(C)C(=O)Oc1cccc2c1OC(C)(C)C2`, with 3. Compound `COC(=O)COc1nc(F)c(Cl)c(N)c1Cl` came in with a GHS category of 5. Then `Cc1cc(OP(Oc2cc(C)c(C(C)(C)C)cc2C(C)(C)C)Oc2cc(C)c(C(C)(C)C)cc2C(C)(C)C)c(C(C)(C)C)cc1C(C)(C)C`, with 5. Then `CC(=O)N(C)C(=O)Oc1cccc2c1OC1(CCCC1)O2`, with 4; and `Cc1ccc(C(=O)OCCCl)cc1N=Nc1c(O)c(C(=O)Nc2cc(C)c(NC(=O)c3cc4ccccc4c(N=Nc4cc(C(=O)OCCCl)ccc4C)c3O)cc2C)cc2ccccc12`, with 5; and `CC(C)(C)c1ccc(C2=C3C(=O)NC(c4ccc(C(C)(C)C)cc4)=C3C(=O)N2)cc1`, with 5.

Compound `C=CCSc1nc2ccc(Cc3ccccc3)cc2[nH]1` had a GHS category of 5. Compound `C=C[Si](C)(N(CC)C(C)=O)N(CC)C(C)=O` had a GHS category of 4. Then `CC(C)(CO)C1OCC2(CO1)COC(C(C)(C)CO)OC2` (stereo not drawn), with 5. `CC1N=C(c2ccccc2F)c2c(ccc(NC(=O)NCCO)c2Br)N(C)C1=O` (stereo not drawn) gave a GHS category of 5.

On to `CC1COc2ccccc2N1C(=O)C(Cl)Cl` (stereo not drawn), for which the GHS category is on record as 5. As for `CCC=CCCCCCCCC(=O)OC`, the figure is 5; as for `COc1ccc(C2c3ccc(OC)cc3CCN2c2ccccc2)cc1` (stereo not drawn), 4; as for `O=C1OCCN1N=Cc1c(N2CCCCCC2)nc2ccccn2c1=O`, 4. The compound `Cc1cccc2ncc(C(=O)NC3CCCCCC3)c(=O)n12` came in with a GHS category of 3. The compound `N[C@@H](CC(=O)O)C(=O)O` registered a GHS category of 5. `CC(C)(C)C(=O)OCC(=O)c1ccccc1` registered a GHS category of 5.

Compound `CCCc1nc(C)n2[nH]c(=O)nc2c1Cc1ccc(-c2ccccc2-c2nn[nH]n2)cc1` yielded a GHS category of 4. Regarding `Cc1ccc(C2OC[C@@H]3OC(c4ccc(C)c(C)c4)O[C@H]([C@H](O)CO)[C@@H]3O2)cc1C` (stereo partly drawn), the GHS category is recorded as 5. `C[C@@H](O)[C@H]1C(=O)N2C(C(=O)O)=C(S[C@@H]3CN[C@H](C(=O)N(C)C)C3)[C@H](C)[C@H]12` showed a GHS category of 5. Regarding `CC(C)N1C2CCC1CC(=O)C2`, the GHS category worked out at 3. Regarding `COc1cc(OC)nc(N=C(O)NS(=O)(=O)c2c(Cl)nc3ccccn23)n1`, the GHS category came to 5. In turn, `CC(c1ccc2c(c1)Cc1ccccc1-2)S(=O)CC(=O)O` (stereo not drawn) registered a GHS category of 4.

The compound `CCO[Si](C)(CCCCl)OCC` yielded a GHS category of 5. Take `O=C(O)c1cc(N=Nc2ccc(N=Nc3ccc(S(=O)(=O)O)cc3)cc2)ccc1O`: the GHS category stood at 5. `OC(OCC(COC(O)C(Cl)(Cl)Cl)(COC(O)C(Cl)(Cl)Cl)COC(O)C(Cl)(Cl)Cl)C(Cl)(Cl)Cl` (stereo not drawn): the GHS category amounted to 4.

For the compound `CCC(=O)OC/C=C(/C)CCC=C(C)C`, the GHS category worked out at 5. In turn, `CCCC(=O)O[C@]1(C(=O)CCl)[C@@H](C)C[C@H]2[C@@H]3CCC4=CC(=O)C=C[C@]4(C)[C@@]3(F)C(=O)C[C@@]21C` displayed a GHS category of 5. Turning to `COC(OC)C(C)Cc1ccc(C(C)C)cc1` (stereo not drawn), the GHS category is listed as 5. Then `CC(=O)CC(=O)Nc1cc(Cl)c(NC(=O)CC(C)=O)cc1C`, with 5; and `CCCCCCCCCCCCCCCCCCOCCC[N+](C)(C)C`, with 4; and `O=c1[nH]c2ccc([N+](=O)[O-])cc2[nH]1`, with 5. Turning to `COC(=O)c1ccc(CNS(C)(=O)=O)cc1S(=O)(=O)NC(=O)Nc1nc(OC)cc(OC)n1`, the GHS category is given as 5. As for `NC1=NC(=O)CC(=O)N1`, the GHS category is recorded as 5.

Turning to `Nc1ccc(NCCO)c([N+](=O)[O-])c1`, the GHS category was determined as 4. Then `CCN(C(=O)CCCSc1nnnn1C)c1ccccn1`, with 4; and `CC(C)OC(=O)CCC/C=C\C[C@@H]1[C@@H](CC[C@@H](O)CCc2ccccc2)[C@H](O)C[C@@H]1O`, with 1; and `N[C@@H]1CONC1=O`, with 5. `CCOc1ccc(OC(=O)c2ccccc2OC(N)=O)cc1` displayed a GHS category of 5.

With `C=CC(=C)C`, the GHS category amounted to 5.

Compound `CN(CCOP(=O)(O)O)C(=N)N` returned a GHS category of 5. As for `CCCCOC(=O)c1ccc(-n2nc(OCCN(CC)CC)c3ccccc32)cc1`, the figure is 4. As for `CC1(C)COC(Cn2ccnc2)(c2cc3ccccc3o2)OC1`, the figure is 4.

For the compound `Cc1cc(C)c(O)c(-c2cc(C)cc(C)c2O)c1`, the GHS category worked out at 5.
